In ChEMBL document CHEMBL1201862, “PubChem BioAssay data set” (2004):
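Briefly, cells in 96-well plates were exposed to five compound concentrations for 48 h, and endpoints were estimated by linear interpolation. GI50 marks 50% less growth.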 Calls of active or inactive are those of the source. Rule as the data show it: active = GI50 up to about 1.1 µM and inactive = higher.

Columns and labels:
Assay in all cases: NCI anticancer screen, dose series, 48 h
786-0 = system: 786-0
A549 = system: A549
SR = system: SR
SF-268 = system: SF-268
NCI-H522 = system: NCI-H522
HCT-116 = system: HCT-116
Hs-578T = system: Hs-578T
COLO 205 = system: COLO 205
NCI-H226 = system: NCI-H226
SF-539 = system: SF-539
UACC-62 = system: UACC-62
RXF 393 = system: RXF 393
UO-31 = system: UO-31
MDA-MB-435 = system: MDA-MB-435
SK-MEL-28 = system: SK-MEL-28
PC-3 = system: PC-3
NCI-H23 = system: NCI-H23
CCRF-CEM = system: CCRF-CEM
HOP-92 = system: HOP-92
T47D = system: T47D
SK-MEL-5 = system: SK-MEL-5
MDA-MB-231 = system: MDA-MB-231
DU-145 = system: DU-145
RPMI-8226 = system: RPMI-8226
EKVX = system: EKVX
M14 = system: M14
CAKI-1 = system: CAKI-1
MCF7 = system: MCF7
IGROV-1 = system: IGROV-1
SNB-19 = system: SNB-19
A498 = system: A498
SNB-75 = system: SNB-75
MOLT-4 = system: MOLT-4
LOX IMVI = system: LOX IMVI
HL-60 = system: HL-60
HOP-62 = system: HOP-62
OVCAR-5 = system: OVCAR-5
OVCAR-4 = system: OVCAR-4
SN12C = system: SN12C
HT-29 = system: HT-29
MDA-N = system: MDA-N
NCI-H460 = system: NCI-H460
SK-OV-3 = system: SK-OV-3
OVCAR-3 = system: OVCAR-3
HCC 2998 = system: HCC 2998
SK-MEL-2 = system: SK-MEL-2
OVCAR-8 = system: OVCAR-8
KM12 = system: KM12
K562 = system: K562
UACC-257 = system: UACC-257
TK-10 = system: TK-10
ACHN = system: ACHN
NCI/ADR-RES = system: NCI/ADR-RES
U-251 = system: U-251
HCT-15 = system: HCT-15
SF-295 = system: SF-295
Malme-3M = system: Malme-3M
BT-549 = system: BT-549
SW-620 = system: SW-620

CC(=O)c1ccc(Br)cc1NC1=CC(=O)c2ncccc2C1=O was tested, and the GI50 (786-0) was 3.71 µM (inactive), the GI50 (A549) was 2.4 µM (inactive) and the GI50 (SR) was 2.22 µM (inactive). The GI50 (SF-268) was 7.26 µM (inactive), the GI50 (NCI-H522) was 3.27 µM (inactive) and the GI50 (HCT-116) was 1.9 µM (inactive). The GI50 (Hs-578T) was 17.1 µM (inactive), the GI50 (COLO 205) was 3.18 µM (inactive) and the GI50 (NCI-H226) was 3.64 µM (inactive). For the same molecule, the GI50 (SF-539) was 2.56 µM (inactive), the GI50 (UACC-62) was 2.58 µM (inactive) and the GI50 (RXF 393) was 5.13 µM (inactive). The GI50 (UO-31) was 3.86 µM (inactive), the GI50 (MDA-MB-435) was 1.69 µM (inactive) and the GI50 (SK-MEL-28) was 6.79 µM (inactive). The GI50 (PC-3) was 3.95 µM (inactive), the GI50 (NCI-H23) was 2 µM (inactive) and the GI50 (CCRF-CEM) was 3.47 µM (inactive). The GI50 (HOP-92) was 12.2 µM (inactive), the GI50 (T47D) was 3.85 µM (inactive) and the GI50 (SK-MEL-5) was 0.322 µM (active). The GI50 (MDA-MB-231) was 1.88 µM (inactive), the GI50 (DU-145) was 4.36 µM (inactive) and the GI50 (RPMI-8226) was 2.18 µM (inactive). The GI50 (EKVX) was 6.4 µM (inactive), the GI50 (M14) was 2.22 µM (inactive) and the GI50 (CAKI-1) was 7.59 µM (inactive). For the same molecule, the GI50 (MCF7) was 1.38 µM (inactive), the GI50 (IGROV-1) was 2.69 µM (inactive) and the GI50 (SNB-19) was 3.84 µM (inactive). The GI50 (A498) was 1.57 µM (inactive), the GI50 (SNB-75) was 0.242 µM (active) and the GI50 (MOLT-4) was 2.29 µM (inactive). The GI50 (LOX IMVI) was 5.79 µM (inactive), the GI50 (HL-60) was 1.64 µM (inactive) and the GI50 (HOP-62) was 3.47 µM (inactive). The GI50 (OVCAR-5) was 13.1 µM (inactive), the GI50 (OVCAR-4) was 1.83 µM (inactive) and the GI50 (SN12C) was 7 µM (inactive). For the same molecule, the GI50 (HT-29) was 3.24 µM (inactive), the GI50 (MDA-N) was 1.81 µM (inactive) and the GI50 (NCI-H460) was 1.12 µM (active). For the same molecule, the GI50 (SK-OV-3) was 15.7 µM (inactive), the GI50 (OVCAR-3) was 1.61 µM (inactive) and the GI50 (HCC 2998) was 3.22 µM (inactive). The GI50 (SK-MEL-2) was 4.09 µM (inactive), the GI50 (OVCAR-8) was 5.53 µM (inactive) and the GI50 (KM12) was 1.83 µM (inactive). For the same molecule, the GI50 (K562) was 1.49 µM (inactive), the GI50 (UACC-257) was 1.48 µM (inactive) and the GI50 (TK-10) was 17.6 µM (inactive). The GI50 (ACHN) was 3.6 µM (inactive), the GI50 (NCI/ADR-RES) was 3.9 µM (inactive) and the GI50 (U-251) was 6.22 µM (inactive). For the same molecule, the GI50 (HCT-15) was 2.69 µM, the GI50 (SF-295) was 4.62 µM (inactive) and the GI50 (Malme-3M) was 1.64 µM (inactive).

In the case of CCC(C)C(NC(=O)c1c2ccccc2nc2ccccc12)C(=O)O (stereo not drawn), the GI50 (786-0) is reported as > 100 µM (inactive), the GI50 (A549) is reported as 77.3 µM (inactive) and the GI50 (SR) is reported as > 100 µM (inactive). For the same molecule, the GI50 (SF-268) was > 100 µM (inactive), the GI50 (NCI-H522) was > 100 µM (inactive) and the GI50 (HCT-116) was > 100 µM (inactive). The GI50 (COLO 205) was > 100 µM (inactive), the GI50 (NCI-H226) was > 100 µM (inactive) and the GI50 (SF-539) was 60.7 µM (inactive). The GI50 (UACC-62) was > 100 µM (inactive), the GI50 (UO-31) was 25.1 µM (inactive) and the GI50 (MDA-MB-435) was 79.1 µM (inactive). For the same molecule, the GI50 (SK-MEL-28) was > 100 µM (inactive), the GI50 (PC-3) was > 100 µM (inactive) and the GI50 (NCI-H23) was 83 µM (inactive). The GI50 (CCRF-CEM) was 31.7 µM (inactive), the GI50 (HOP-92) was > 100 µM (inactive) and the GI50 (SK-MEL-5) was 60 µM (inactive). The GI50 (MDA-MB-231) was > 100 µM (inactive), the GI50 (DU-145) was > 100 µM (inactive) and the GI50 (RPMI-8226) was > 100 µM (inactive). For the same molecule, the GI50 (EKVX) was > 100 µM (inactive), the GI50 (M14) was > 100 µM (inactive) and the GI50 (CAKI-1) was > 100 µM (inactive). For the same molecule, the GI50 (MCF7) was 98.9 µM (inactive), the GI50 (IGROV-1) was 86.5 µM (inactive) and the GI50 (SNB-19) was > 100 µM (inactive). The GI50 (A498) was > 100 µM (inactive), the GI50 (SNB-75) was > 100 µM (inactive) and the GI50 (MOLT-4) was > 100 µM (inactive). For the same molecule, the GI50 (LOX IMVI) was 74 µM (inactive), the GI50 (HOP-62) was > 100 µM (inactive) and the GI50 (OVCAR-5) was > 100 µM (inactive). For the same molecule, the GI50 (OVCAR-4) was > 100 µM (inactive), the GI50 (SN12C) was > 100 µM (inactive) and the GI50 (HT-29) was 75.9 µM (inactive). The GI50 (NCI-H460) was > 100 µM (inactive), the GI50 (SK-OV-3) was > 100 µM (inactive) and the GI50 (OVCAR-3) was > 100 µM (inactive). The GI50 (HCC 2998) was > 100 µM (inactive), the GI50 (SK-MEL-2) was > 100 µM (inactive) and the GI50 (OVCAR-8) was > 100 µM (inactive). For the same molecule, the GI50 (KM12) was > 100 µM (inactive), the GI50 (K562) was > 100 µM (inactive) and the GI50 (BT-549) was 22.6 µM (inactive). For the same molecule, the GI50 (UACC-257) was > 100 µM (inactive), the GI50 (TK-10) was > 100 µM (inactive) and the GI50 (ACHN) was > 100 µM (inactive). The GI50 (NCI/ADR-RES) was > 100 µM (inactive), the GI50 (U-251) was > 100 µM (inactive) and the GI50 (SW-620) was > 100 µM (inactive). The GI50 (HCT-15) was 41 µM, the GI50 (SF-295) was > 100 µM (inactive) and the GI50 (Malme-3M) was 51.2 µM (inactive).

For CSc1ccc2c(cc1=O)[C@@H](NC(=O)c1ccc(N)cc1)CCc1cc(O)c(O)c(O)c1-2, the GI50 (786-0) was 12.8 µM (inactive), the GI50 (A549) was 19.1 µM (inactive) and the GI50 (SF-268) was 14.3 µM (inactive). For the same molecule, the GI50 (NCI-H522) was 13.8 µM (inactive), the GI50 (RXF 393) was > 75 µM (inactive) and the GI50 (UO-31) was 20.3 µM (inactive). The GI50 (MDA-MB-435) was 14.5 µM (inactive), the GI50 (SK-MEL-28) was > 75 µM (inactive) and the GI50 (HOP-92) was 29.4 µM (inactive). For the same molecule, the GI50 (T47D) was 44 µM (inactive), the GI50 (DU-145) was > 75 µM (inactive) and the GI50 (RPMI-8226) was 35 µM (inactive). For the same molecule, the GI50 (EKVX) was 36.4 µM (inactive), the GI50 (IGROV-1) was 20.4 µM (inactive) and the GI50 (SNB-19) was 21.8 µM (inactive). The GI50 (A498) was 73.8 µM (inactive), the GI50 (MOLT-4) was 33.1 µM (inactive) and the GI50 (HOP-62) was 14.4 µM (inactive). For the same molecule, the GI50 (OVCAR-5) was 22 µM (inactive), the GI50 (OVCAR-4) was 16.1 µM (inactive) and the GI50 (SN12C) was 29.5 µM (inactive). The GI50 (NCI-H460) was 15 µM (inactive), the GI50 (HCC 2998) was 13.6 µM (inactive) and the GI50 (OVCAR-8) was 26.5 µM (inactive). The GI50 (K562) was 12.1 µM (inactive), the GI50 (BT-549) was 16.9 µM (inactive) and the GI50 (UACC-257) was 20.8 µM (inactive). For the same molecule, the GI50 (ACHN) was 17 µM (inactive), the GI50 (NCI/ADR-RES) was 18.6 µM (inactive) and the GI50 (U-251) was 19.4 µM (inactive). The GI50 (HCT-15) was 11.2 µM and the GI50 (SF-295) was 17.2 µM (inactive).
